Assays:
[1] = Acid-catalyzed decomposition / stability in acid, 37° C., HPLC; assay type: physicochemical
Experimental: In order to study acid-catalyzed decomposition of the subject compounds, a pH 1 buffer was prepared by dissolving 0.746 g KCl and 26.8 g 1.0N HCl in sufficient distilled water to give 200 ml total volume. Ten ml of buffer, prewarmed to 37° C., was added to 102 micrograms of ddA (Compound I), and 93 micrograms of each compounds II or III, 2',3'-dideoxy-2'-alpha-flourodeminine or 2'-beta-flouro-2',3'-dideoxyadenosine. The samples were shaken and maintained at 37° C. Aliquots were taken at timed intervals and neutralized immediately with 0.1 NaOH and chilled on ice. The amounts of ddA and the fluorinated analogs were determined by HPLC analysis using a 4.6×250 mm […] Ultrasphere ODS column protected by a guard column packed with 37-50 micron Vydac 201SC. Elution was with 12% acetonitrile in 0.01 M pH 6.8 phosphate buffer at 1.0 ml/minute. The integrator peak areas were plotted as a function of time, and the data was fitted to a first order decomposition curve by a computer program (MLAB).

[2] = tested on: human immunodeficiency virus (HIV); conditions: background statement; cited from earlier work
[3] = relative to adenosine; cited from earlier work
adenosine deaminase = experiment: Metabolism by adenosine deaminase in the body; assay type: in vitro ADME
[4] = tested on: human immunodeficiency virus (HIV; HTLV-IIIB virus) in ATH8 cells; experiment: HIV cytopathic assay using ATH8 cells (protection against the cytopathic effect of HIV); assay type: cell-based
Experimental: To test the cytopathic effect of the compounds of the present invention, HIV cytopathic assay was performed using ATH8 cells as described by Mitsuya et al., Proc. Nat. Acad. Sci. USA, 83, 1911 (1986). In brief, 2×10^5 ATH8 cells were preexposed to polybrene, exposed to HTLV-IIIB virus (2000 virus particles/cell) for 45 minutes after treatment with polybrene, resuspended in 1 ml of culture medium containing Interleukin 2 in the presence or absence of various concentrations of compounds, and incubated in culture tubes at 37° C. in 5% CO2 /95% air humidified atmosphere. Control cells were treated similarly but were not exposed to the virus. At various times on days 5 to 7 of culture, the total viable cells were counted in a hemocytometer by the trypan blue dye exclusion method. In the HIV cytopathic effect assay using ATH8 cells, 0.5 to 5 virus particles per cell represent the minimum cytopathic dose of the virus.

HIV = conditions: background statement; cited from earlier work

Nc1ncnc2c1ncn2[C@H]1CC[C@@H](CO)O1 [Compound I, 2',3'dideoxyadenosine]
half-life ([1]; ph 1 kcl/hcl buffer, pH 1.0, 37° C. (FIG. 3)): 0.583 min
in vitro activity against HIV [2]: potent in vitro activity
rate of acid-catalyzed hydrolysis of the glycosidic bond, times faster than adenosine [3]: 40,000 times

Nc1ncnc2c1ncn2[C@@H]1O[C@H](CO)C[C@H]1F [Compound II, 2',3'-dideoxy-2'-alpha-flouroadenosine]
stability to acid-catalyzed decomposition ([1]; pH 2, 37° C. (FIG. 2)): stable to acid-catalyzed decomposition

Nc1ncnc2c1ncn2[C@@H]1O[C@H](CO)C[C@@H]1F [Compound III, 2',3'-dideoxy-2'-beta-fluoroadenosine]
change after exposure to acidic conditions ([1]; 24 hour exposure, pH 1 (FIG. 3)): completely unchanged
metabolism by adenosine deaminase (adenosine deaminase): metabolism of 2',3'-dideoxy-2'-beta-fluoroadenosine to compound IV
durability of the antiviral effect, compared with the parent compound I ([4]; compared with compound I (ddA)): as durable as that of the parent compound
activity and potency in protecting ATH8 cells against the cytopathic effect of HIV, compared with ddA ([4]; substantial viral excess, FIG. 1): approximately as active and potent as ddA

Cc1ccc(C(=O)Nc2ccc(S(=O)(=O)O)c3cc(S(=O)(=O)O)cc(S(=O)(=O)O)c23)cc1NC(=O)c1cccc(NC(=O)Nc2cccc(C(=O)Nc3cc(C(=O)Nc4ccc(S(=O)(=O)O)c5cc(S(=O)(=O)O)cc(S(=O)(=O)O)c45)ccc3C)c2)c1 [suramin]
HIV replication in the presence of compound (HIV): considerably slower

antimoniotungstate
HIV replication in the presence of compound (HIV): considerably slower
